# Test results reported in a melting point compilation (Tetko et al.; mined from patent text by program, amines drawn as free bases though some values may be those of a salt).
row,melting point [°C],SMILES
1,254 to 256,O=S1(=O)CCN2C=CC=C(c3ccc(OC4CCCC4)cc3)C2=N1
2,227 to 229,COc1cccc(OCC(N)=O)c1-c1c(C#N)c2ccccn2c1Nc1c(C)cccc1C
3,44 to 45,CCCCCCCCCCCCCCc1ccc(C(=O)CCCCC)c(O)c1
4,83 to 85,C=CCOc1cccc(-c2cn3ccc4ccccc4c3n2)c1
5,125 to 129,CC(=O)CC(=O)C=Cc1ccc(O)cc1Cl
6,110,CCS(=O)(=O)Oc1cccc([N+](=O)[O-])c1
7,177 to 179,COc1cc2c(cc1OC)C(=O)C(C#N)C2 (stereo not given)
8,175 to 177,CCOC(=O)c1cn(C2CC2)c2c(C)c(N3CCN(C)CC3)c(F)c(Cl)c2c1=O
9,127 to 128,COc1cc(-c2ccccc2)c(C)cc1CC(=O)O
10,80 to 90,c1ccc(OCCSCc2nnc(-c3ccc(OCc4ccncc4)cc3)o2)cc1
11,85 to 87,CCCCOC(=O)[C@H]1CN(c2ccc3c(c2)sc(=O)n3C)C(=O)O1
12,233 to 234,NC(=O)NN=Cc1ccc(Oc2ccc(F)cc2)c(F)c1
13,115 to 117,CN(C)C(=O)C1=Cc2cccc(OC[C@@H]3CO3)c2OC1
14,189 to 191,CC(C(=O)Nc1ccc2c(c1)OCO2)N1CCN(c2ccccn2)CC1 (stereo not given)
15,135 to 136,CC(=O)OC1CC2=CCC3C4CCC(C(C)CI)C4(C)CCC3C2(C)C(OC(C)=O)C1 (stereo not given)
16,180 to 182,Cc1oc(-c2ccccc2)nc1CCOc1ccc(C[C@@H](C(=O)O)N2CCN(S(=O)(=O)c3ccccc3)CC2)cc1
17,157 to 158,CCOC(=O)Cc1ccc(-c2nc(COc3ccc(COc4nn(-c5ccccc5)cc4C=O)cc3OC)c(C)o2)cc1
18,200 to 203,O=C(N[C@@H](Cc1c[nH]cn1)C(=O)OCc1ccsc1)C(Cc1cccc2ccccc12)Cc1cccc2ccccc12
19,125 to 127,CCCCCCOc1ccc(-c2nc(-c3ccc(OCCCCCC)cc3O)nc(-c3ccc(OCCCCCC)cc3O)n2)c(O)c1
20,333 to 334,COc1cc2nc(N3CCN(c4ccnc(N(C)C5CCCC5)n4)CC3)nc(N)c2cc1OC
21,114 to 116,CC(C)(CO)NCC(O)Cn1ccnc1[N+](=O)[O-] (stereo not given)
22,112,CCOC(=O)CCCCOc1ccc([N+](=O)[O-])c(/C=C2\CC(=O)NC2=O)c1
23,65 to 67,C#CC(C)(C)Oc1ccc2ncccc2c1
24,209 to 211,Oc1ccc2c(-c3ccccn3)noc2c1Cl
25,58 to 60,CCOC(=O)C(C)(C)Oc1ccc(CNc2ccc(Cl)cc2)cc1
26,93,CCCN(CCC)[C@@H]1Cc2c(Br)ccc3c2[C@@H](C1)CN3C(=O)c1ccccc1
27,52 to 54,COCc1cc(-c2ncc(C(F)(F)F)cc2Cl)ccc1Cl
28,158,CCN1CCC(C(=O)NO)(S(=O)(=O)c2ccc(Oc3ccc(Cl)cc3)cc2)CC1
29,114 to 116,CCOCCN(CC1=CCC(NC(C)=O)(Oc2ccccc2)C=C1)C(=O)C(Cl)Cl (stereo not given)
30,95 to 96,COCCNC(=O)c1cc2cc(OCCNC[C@H](O)COc3ccccc3)ccc2o1

# The remaining lines, values behind:
row,SMILES,melting point [°C]
1,CCCC(C)(C)C(=O)O[C@H]1C[C@H](O)C=C2C=C[C@H](C)[C@H](CC[C@@H]3C[C@@H](O)CC(=O)O3)[C@H]21,143 to 144
2,COc1ccc(-c2cc(=Nc3c(C)cc(C)cc3C)n(C)c(=NCc3ccccc3)n2C)cc1OC,97 to 100
3,NC(=O)N=C1SCCN1Cc1ccccc1,143 to 145
4,COc1ccccc1OCC1NC(C)(C)C(C(=O)O)S1 (stereo not given),136 to 138
5,CCc1cn(-c2nc(C)nc(NC)n2)c2ccccc12,174 to 175
6,Oc1ccc(-c2cc3c(Oc4ccc(Cl)cc4)cncc3s2)cc1,213 to 215
7,CC(C)C(=O)N(O)C(c1ccccc1)c1cc(C(C)(C)C)c(O)c(C(C)(C)C)c1 (stereo not given),179 to 180
8,N#Cc1cccn1-c1ccc(CN2C(=O)c3ccccc3C2=O)cc1,167 to 168
9,COc1ccc2c(c1)C(=O)C(Cc1cccc(N)c1)CC2 (stereo not given),159 to 161
10,S=C1Nc2ccccc2Sc2nccn21,156 to 159
11,C[C@]1(CN2CCC(NCCc3ccc(C(F)(F)F)cc3)CC2)Cn2cc([N+](=O)[O-])nc2O1,80.7 to 84.2
12,CC1(C)C(=O)Nc2ccc(-c3cccc(C#N)c3F)cc21,231 to 232
13,CCc1cc2c(Nc3nnc(C)s3)ncnc2s1,277 to 280
14,O=C(NN=Cc1ccnc2ccccc12)c1ccc(Cl)cc1,233
15,CC1(C)C(=O)Oc2ccc3cc(N)c(Cn4cncn4)cc3c21,160 to 163
16,COC(=O)C#CC1CCC2C3CCC4CC(O)CCC4(C)C3CCC12C (stereo not given),135 to 137
17,COC(=O)c1ccc(SC)c(-c2cc(C)no2)c1C,94 to 95
18,CN(C)CCNC(=O)N1CCN(c2ccc(Cl)c(Cl)c2)CC1,80 to 83
19,COc1ccc2cc(-c3ncno3)ccc2n1,150 to 152
20,O=Cc1cccc(C=Cc2ccc3ccccc3n2)c1,78.6 to 80.8

row,SMILES,melting point [°C]
1,COC(=O)c1cccc(CN2C(=O)N(c3ccccc3Br)Cc3cnc(Nc4ccccc4)nc32)c1,79 to 82
2,CC(=O)N1CCC(NC(=O)Nc2ccccc2CCc2cc(C(C)(C)C)c(O)c(C(C)(C)C)c2)CC1,218 to 221
3,CCCCCCOc1ccc2cc(OCCCCCC)ccc2c1,78 to 79
4,COC(=O)CCc1ccc(C(c2cc(F)ccc2F)S(=O)(=O)c2ccc(Cl)cc2)nc1 (stereo not given),121 to 123
5,Cn1c(C(F)(F)F)nn(-c2ccccc2N)c1=O,101
6,CCN(CC)CCc1ccc(NC(=O)C#Cc2ccc(C(F)(F)F)cc2Cl)cc1,145 to 150
7,O=C(c1cc(-c2ccccc2)c2sccc2c1)N1CCCCC1,112
8,C=CCn1c(C)nc2c3c(c(C(=O)OCC)cc21)C(=O)CC1(Cc2ccccc2C1)N3,183 to 184
9,COc1ccc(-c2cnn3c(N)c(-c4cccc(Cl)c4)c(C)nc23)cc1OC,223 to 226
10,CCc1nc2c(C)cc(C)nc2n1Cc1ccc(-c2ccccc2-c2c(N(C)C)c(=O)c2=O)cc1,140 to 142
11,COc1ccc(C)cc1NC(=O)Nc1ccc(N2CCN(C(=O)Nc3ccc(OCCO)cc3C(F)(F)F)CC2)c(C#N)c1,135 to 137
12,COC(=O)c1ccc2c(c1SCCCl)Cc1ccccc1CO2,100
13,COc1cc(N)c(SCc2ccccc2)cc1OC,86 to 88
14,CC(Oc1ccc(Oc2ccc(Cl)cc2)cc1)C(=O)N1CCCO1 (stereo not given),98 to 100
15,CCOC(=O)COc1ccccc1C(=O)Nc1ccc(Sc2ccccc2-c2nnn[nH]2)cc1,97 to 99
16,O=C(NC1CN2CCC1CC2)C1(O)c2ccccc2-c2ccccc21 (stereo not given),230
17,COC(=O)CC(C(=O)OC)N1CCC(Nc2ncc3ncnc(Nc4cccc(Br)c4)c3n2)CC1 (stereo not given),193
18,CN(C)C=C1CCN(Cc2ccc([N+](=O)[O-])cc2)c2ccsc2C1=O,214 to 216
19,COCC#CCCCCC12OCC(C(C)(C)C)(CO1)CO2,47 to 49
20,CC(C)(C)OC(=O)N1CCN(c2cccc3c(Sc4ccccc4)c[nH]c23)CC1,165 to 166
